# Measured values reported in PMC10321576, “Cyclic peptides target the aromatic cage of a PHD-finger reader domain to modulate epigenetic protein function” (Chemical Science, 2023).
# Peptide text beside a SMILES is read from it.
# Key:
# DIDO PHD = target: T1, DIDO PHD (Homo sapiens, UniProt Q9BTC0); experiment: BLI binding; conditions: 1:1 binding model
# T1 construct: DIDO PHD
# T1 sequence (Q9BTC0 268-322 limits assumed): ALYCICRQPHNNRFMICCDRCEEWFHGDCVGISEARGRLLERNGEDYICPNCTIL
# Description: (§1) against KDM7 and other protein domains. t1/2 = half life (0.693 / Koff)
# (§2) (1 picture or pasted object on this page, not shown here)
# ING2 PHD = target: T2, ING2 PHD (Homo sapiens, UniProt Q9H160); experiment: BLI binding; conditions: 1:1 binding model
# T2 construct: ING2 PHD
# T2 sequence (Q9H160 212-261 limits assumed): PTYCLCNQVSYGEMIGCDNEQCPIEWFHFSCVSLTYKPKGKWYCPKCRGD
# Description: as §1, §2
# SPIN1 TTD = SPIN1 TTD (Homo sapiens, UniProt Q9Y657); experiment: BLI binding; conditions: 1:1 binding model
# Chain of SPIN1 TTD (Q9Y657 53-262 limits assumed): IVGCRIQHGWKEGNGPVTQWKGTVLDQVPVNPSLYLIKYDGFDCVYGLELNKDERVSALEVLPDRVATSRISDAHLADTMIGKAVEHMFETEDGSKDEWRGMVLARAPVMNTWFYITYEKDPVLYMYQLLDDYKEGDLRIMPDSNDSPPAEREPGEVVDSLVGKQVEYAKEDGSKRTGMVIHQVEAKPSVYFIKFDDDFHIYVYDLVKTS
# Description: as §1, §2
# TAF3 PHD = target: T3, TAF3 PHD (Homo sapiens, UniProt Q5VWG9); experiment: BLI binding; conditions: 1:1 binding model
# T3 construct: TAF3 PHD
# T3 sequence (Q5VWG9 865-915 limits assumed): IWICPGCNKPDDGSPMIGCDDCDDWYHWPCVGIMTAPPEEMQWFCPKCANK
# Description: as §1, §2
# KDM7C Dual - ZB = KDM7C Dual - ZB (Homo sapiens, UniProt O75151); experiment: ITC binding
# Chain of KDM7C Dual - ZB (O75151 1-353 limits assumed): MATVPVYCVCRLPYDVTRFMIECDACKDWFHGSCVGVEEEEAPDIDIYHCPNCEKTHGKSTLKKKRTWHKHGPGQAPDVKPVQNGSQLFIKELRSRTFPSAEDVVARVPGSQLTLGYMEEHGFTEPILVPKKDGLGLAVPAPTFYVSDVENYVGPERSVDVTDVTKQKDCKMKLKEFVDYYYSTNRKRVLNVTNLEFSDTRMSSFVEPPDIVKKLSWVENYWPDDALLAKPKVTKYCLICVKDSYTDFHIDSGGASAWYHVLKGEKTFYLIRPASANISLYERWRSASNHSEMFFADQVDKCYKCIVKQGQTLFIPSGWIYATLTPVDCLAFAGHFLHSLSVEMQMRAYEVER
# Description: (§3) Figure S10. ITC results: Tabulated values from 1:1 binding model and conditions
# (§4) ITC buffer = 50 mM HEPES, 100 mM NaCl, pH 7.4, 0.2 µm filtered), at 25 °C. Dual = PHD+JmjC. HisTrx
# (§5) = His 6+thioredoxin tag, GST = glutathione S -transferase tag, ZB = Z -basic tag. Syringe contained
# (§6) peptide solution in buffer. Cell contained protein solution in buffer.
# as §2
# KDM7A Dual = KDM7A Dual (Homo sapiens, UniProt Q6ZMT4); experiment: ITC binding
# Chain of KDM7A Dual (Q6ZMT4 38-386 limits assumed): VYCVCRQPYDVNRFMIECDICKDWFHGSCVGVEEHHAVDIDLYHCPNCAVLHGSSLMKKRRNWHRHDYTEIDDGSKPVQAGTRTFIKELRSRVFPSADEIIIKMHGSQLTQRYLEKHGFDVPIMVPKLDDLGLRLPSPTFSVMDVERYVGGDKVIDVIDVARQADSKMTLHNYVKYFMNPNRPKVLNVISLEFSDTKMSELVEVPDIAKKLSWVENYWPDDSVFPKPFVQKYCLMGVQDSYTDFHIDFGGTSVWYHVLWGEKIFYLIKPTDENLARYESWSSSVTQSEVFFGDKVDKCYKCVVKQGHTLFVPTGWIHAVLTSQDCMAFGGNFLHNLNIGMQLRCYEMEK
# Description: as §3, §4, §5, §6, §2
# KDM7B Dual = target: T4, KDM7B Dual (Homo sapiens, UniProt Q9UPP1); experiment: ITC binding
# T4 construct: Dual = PHD+JmjC; made in house
# T4 sequence (Q9UPP1 37-483 limits assumed): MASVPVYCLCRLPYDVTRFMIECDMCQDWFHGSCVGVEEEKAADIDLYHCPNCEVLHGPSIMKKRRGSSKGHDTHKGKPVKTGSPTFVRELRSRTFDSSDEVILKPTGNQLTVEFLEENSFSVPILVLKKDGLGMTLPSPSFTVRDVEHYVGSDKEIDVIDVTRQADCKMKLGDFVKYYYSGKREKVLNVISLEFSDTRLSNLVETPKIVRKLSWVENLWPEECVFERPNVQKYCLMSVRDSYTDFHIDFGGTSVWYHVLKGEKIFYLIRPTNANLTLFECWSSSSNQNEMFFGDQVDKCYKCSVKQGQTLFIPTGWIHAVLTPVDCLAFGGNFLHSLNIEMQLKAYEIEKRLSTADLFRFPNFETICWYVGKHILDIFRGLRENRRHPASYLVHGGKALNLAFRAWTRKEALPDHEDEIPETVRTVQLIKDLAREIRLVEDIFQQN
# Description: as §3, §4, §5, §6, §2
# KDM7C PHD = target: T5, KDM7C PHD (Homo sapiens, UniProt O75151); experiment: ITC binding; conditions: for Kd: 1:1 binding model
# T5 construct: KDM7C 1-67; made in house
# T5 sequence (O75151 1-67): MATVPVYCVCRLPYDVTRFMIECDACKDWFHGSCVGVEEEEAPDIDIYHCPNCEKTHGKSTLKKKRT
# Description: as §3, §4, §5, §6, §2
# KDM7B PHD [1] = target: T6, KDM7B PHD (Homo sapiens, UniProt Q9UPP1); experiment: ITC binding
# T6 construct: KDM7B 1-66; made in house
# T6 sequence (Q9UPP1 1-66 isoform Q9UPP1-2): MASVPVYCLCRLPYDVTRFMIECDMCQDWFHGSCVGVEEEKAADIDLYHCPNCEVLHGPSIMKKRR
# Description: as §3, §4, §5, §6, §2
# HisTrx-DIDO PHD = target: T7, HisTrx-DIDO PHD (Homo sapiens, UniProt Q9BTC0); experiment: ITC binding; conditions: 50 mM HEPES, 100 mM NaCl, pH 7.4, 25 °C; 1:1 binding model
# T7 construct: HisTrx-DIDO PHD
# Description: as §3, §4, §5, §6, §2
# KDM7A PHD = target: T8, KDM7A PHD (Homo sapiens, UniProt Q6ZMT4); experiment: ITC binding
# T8 construct: KDM7A 38-98; made in house
# T8 sequence (Q6ZMT4 38-98): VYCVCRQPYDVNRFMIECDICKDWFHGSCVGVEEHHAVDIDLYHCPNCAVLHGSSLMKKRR
# Description: as §3, §4, §5, §6, §2
# KDM7B PHD [2] = target: T6, KDM7B PHD; experiment: BLI binding; set-up: key to BLI Screening, KDM7B PHD: (+) = binding; (-) = no binding; (NS) = non-specific
# Description: Figure S2. BLI for KDM7 proteins with cyclic peptides.
# BLI traces for b inding to KDM7 protein domains immobilised by C-terminal His -tag on Ni -NTA
# biosensors, against cyclic peptides. Response trace for each peptide concentration is represented by
# a different colour, with the fitted curves overlaid in black.
# concentration plotted, with 2-fold dilutions thereafter. Dual domain = PHD+JmjC. […]
# as §1, §2
# KDM7B PHD-finger = target: T9, KDM7B PHD-finger (Homo sapiens, UniProt Q9UPP1); experiment: HDX-MS; assay type: binding; conditions: 60 minute time-course, relative to DMSO
# T9 construct: KDM7B 1-66; His-tag (C); made in house
# T9 sequence (Q9UPP1 1-66 isoform Q9UPP1-2): T6 sequence (Q9UPP1 1-66 isoform Q9UPP1-2)
# Description: (§7) To further evaluate the interactions of OC9 with KDM7B we used hydrogen–deuterium exchange mass spectrometry (HDX-MS), which informs on protein dynamics by following deuterium incorporation into the protein amide backbone (Fig. 2).
# (§8) The residue level view was generated by averaging mass changes across overlapping peptide fragments. Supporting data available in ESI. ^† K4me3 binding aromatic cage residues (‘YYMW’ Fig. 1a) are indicated by red asterix.
# KDM7B dual domain = target: T10, KDM7B dual domain (Homo sapiens, UniProt Q9UPP1); experiment: HDX-MS; assay type: binding; conditions: relative to DMSO
# T10 construct: dual domain (PHD-JmjC) of KDM7B; His-tag (C); made in house
# T10 sequence (Q9UPP1 37-483 limits assumed): as the sequence (Q9UPP1 37-483 limits assumed) above
# Description: as §7, §8
# [3] = 50 mM HEPES, 100 mM NaCl, pH 7.4, 25 °C, 1:1 binding model
smiles,measurement,setting,value
"CC(C)C[C@@H]1NC(=O)[C@H](Cc2ccc(O)cc2)NC(=O)[C@H](Cc2ccc(O)cc2)NC(=O)CSC[C@@H](C(N)=O)NC(=O)[C@H]([C@@H](C)O)NC(=O)[C@H](CCCNC(=N)N)NC(=O)[C@H](Cc2ccccc2)NC(=O)[C@H](C(C)C)NC(=O)[C@H](CO)NC(=O)[C@@H]2CCCN2C(=O)[C@H](Cc2ccc(O)cc2)NC(=O)[C@@H]2CCCN2C(=O)[C@H](Cc2c[nH]cn2)NC(=O)[C@H]([C@@H](C)O)NC1=O [OC9] (HELM PEPTIDE1{[O=C(C[*:3])[*:2]].Y.Y.L.T.H.P.Y.P.S.V.F.R.T.C.[am]}$PEPTIDE1,PEPTIDE1,1:R3-15:R3$$$V2.0)","BLI KD, DIDO PHD",DIDO PHD,no measurable affinity
same,Kd,DIDO PHD,> 1000 nM
same,Kd,ING2 PHD,> 1000 nM
same,Kd,SPIN1 TTD,> 1000 nM
same,Kd,TAF3 PHD,> 1000 nM
same,"ITC ΔH, KDM7C Dual - ZB",KDM7C Dual - ZB; 25 °C,-65.7 ± 3.1 kJ mol -1
same,Kd,"KDM7C Dual - ZB; read-out: ITC pKD, KDM7C Dual - ZB (converted)",10 nM
same,"ITC N, KDM7C Dual - ZB",KDM7C Dual - ZB; stoichiometry,1.19 ± 0.01
same,Kd,KDM7A Dual; [3],34.3 nM
same,"ITC ΔH, KDM7A Dual",KDM7A Dual; 25 °C,-56.9 ± 4.3 kJ mol -1
same,"ITC N, KDM7A Dual",KDM7A Dual; stoichiometry,0.92 ± 0.03
same,Kd,KDM7B Dual; [3],10.5 nM
same,"ITC ΔH, KDM7B Dual",KDM7B Dual; 25 °C,-46.0 ± 1.5 kJ mol -1
same,"ITC N, KDM7B Dual",KDM7B Dual; stoichiometry,0.95 ± 0.02
same,Kd,"KDM7C PHD; 50 mM HEPES, 100 mM NaCl, pH 7.4, 25 °C",9.56 nM
same,Kd,KDM7C PHD,10 ± 4 nM
same,"ITC ΔH, KDM7C PHD",KDM7C PHD; 25 °C,-62.0 ± 1.0 kJ mol -1
same,"ITC N, KDM7C PHD",KDM7C PHD; stoichiometry,1.09 ± 0.01
same,Kd,KDM7B PHD [1]; [3],11.7 nM
same,"ITC ΔH, KDM7B PHD",KDM7B PHD [1]; 25 °C,-46.2 ± 1.2 kJ mol -1
same,"ITC N, KDM7B PHD",KDM7B PHD [1]; stoichiometry,0.99 ± 0.01
same,affinity of OC9 against the KDM7 PHD-fingers greater than the natural histone peptide ligand,KDM7B PHD [1]; vs H3_1–21K4me3,at least 10 fold
same,"ITC KD, HisTrx-DIDO PHD",HisTrx-DIDO PHD,no measurable affinity
same,Kd,KDM7A PHD; [3],33.4 nM
same,"ITC ΔH, KDM7A PHD",KDM7A PHD; 25 °C,-46.0 ± 1.3 kJ mol -1
same,"ITC N, KDM7A PHD",KDM7A PHD; stoichiometry,0.71 ± 0.01
same,koff,KDM7B PHD [2]; 1:1 binding model,0.00143 ± 1e-05 s⁻¹
same,kon,KDM7B PHD [2]; 1:1 binding model,360000 ± 2000 M⁻¹ s⁻¹
same,Kd,"KDM7B PHD [2]; His-tagged protein on Ni-NTA biosensors, 1:1 binding model, read-out: BLI KD, KDM7B PHD",3.96 nM
same,"BLI Screening, KDM7B PHD",KDM7B PHD [2]; qualitative assessment of binding by BLI,+
same,"HDX-MS effect on deuterium uptake, KDM7B PHD-finger",KDM7B PHD-finger,affected an even greater proportion
same,"HDX-MS effect on deuterium uptake, KDM7B dual domain",KDM7B dual domain,only reduced deuterium uptake in peptide fragments within the PHD-finger
